Results: ChEMBL document CHEMBL1201862, “PubChem BioAssay data set” (2004)
Activity calls are given as the source filed them.

Experiments:
[1] = biological target: Delta-type opioid receptor (Homo sapiens, UniProt P41143); experiment: Counterscreen for agonists of heterodimerization of the mu 1 (OPRM1) and delta 1 (OPRD1) opioid receptors: Luminescence-based cell-based high throughput dose response assay to identify agonists of OPRD1 homodimerization. [Related pubchem assays (depositor defined):AID504326, AID504355, AID504692, AID504904, AID504905]; assay type: functional
Delta-type opioid receptor, sequence (P41143 whole entry): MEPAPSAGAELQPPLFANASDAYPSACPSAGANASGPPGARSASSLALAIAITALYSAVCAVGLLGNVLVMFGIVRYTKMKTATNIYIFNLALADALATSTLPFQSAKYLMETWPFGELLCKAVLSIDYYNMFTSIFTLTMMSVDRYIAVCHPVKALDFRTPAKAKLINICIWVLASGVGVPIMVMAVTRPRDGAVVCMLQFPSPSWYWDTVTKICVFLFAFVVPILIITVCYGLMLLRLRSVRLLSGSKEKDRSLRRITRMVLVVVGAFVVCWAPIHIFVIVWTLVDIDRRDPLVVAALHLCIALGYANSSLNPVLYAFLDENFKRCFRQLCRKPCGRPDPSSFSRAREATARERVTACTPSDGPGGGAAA

[2] = biological target: T1, Short transient receptor potential channel 4 (Mus musculus, UniProt Q9QUQ5); experiment: calcium entry via TRPC4 opening agents – cell-based, HEK293 TRPC4/mu-opioid, Fluo-4 calcium, dose response (AID 434937); assay type: functional
T1 sequence (Q9QUQ5 whole entry): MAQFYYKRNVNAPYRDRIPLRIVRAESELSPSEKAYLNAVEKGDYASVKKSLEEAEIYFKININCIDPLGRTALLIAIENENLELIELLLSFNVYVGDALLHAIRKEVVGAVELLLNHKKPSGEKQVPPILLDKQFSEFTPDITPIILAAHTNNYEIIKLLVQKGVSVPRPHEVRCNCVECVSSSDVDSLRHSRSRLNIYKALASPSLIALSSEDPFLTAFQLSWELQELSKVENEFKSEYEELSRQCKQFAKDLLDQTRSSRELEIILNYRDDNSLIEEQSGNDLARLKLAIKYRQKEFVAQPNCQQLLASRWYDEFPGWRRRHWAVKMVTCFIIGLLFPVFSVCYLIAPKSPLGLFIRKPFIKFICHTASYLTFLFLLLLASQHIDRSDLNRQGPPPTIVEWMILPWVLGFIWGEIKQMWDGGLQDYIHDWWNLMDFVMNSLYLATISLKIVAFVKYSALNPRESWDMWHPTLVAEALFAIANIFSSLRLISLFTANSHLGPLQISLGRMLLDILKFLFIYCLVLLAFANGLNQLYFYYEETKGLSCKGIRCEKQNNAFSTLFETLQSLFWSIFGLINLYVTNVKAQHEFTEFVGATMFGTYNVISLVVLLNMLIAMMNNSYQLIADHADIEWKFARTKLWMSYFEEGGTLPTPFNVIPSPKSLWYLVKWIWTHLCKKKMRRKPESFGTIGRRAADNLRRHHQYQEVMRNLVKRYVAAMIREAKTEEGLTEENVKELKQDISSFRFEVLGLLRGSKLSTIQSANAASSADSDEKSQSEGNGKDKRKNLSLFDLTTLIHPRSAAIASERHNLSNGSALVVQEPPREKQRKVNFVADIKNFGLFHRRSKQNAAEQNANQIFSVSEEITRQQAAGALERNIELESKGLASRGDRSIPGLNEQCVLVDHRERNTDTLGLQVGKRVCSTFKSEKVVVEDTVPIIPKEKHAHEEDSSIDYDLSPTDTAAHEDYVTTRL

[3] = reduction of Shn3 3'UTR-driven luciferase in osteoblasts – cell-based, Clone20 osteoblasts, firefly luciferase, cherry-picked, dose response (AID 624132); assay type: functional;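 also: firefly luciferase luminescence from reporter carrying the Shn3 3'UTR in osteoblasts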
[4] = Vero E6 cell cytotoxicity, dose response, cytotoxicity control for non-replicating M. tuberculosis project, secondary assay (AID 492998); assay type: functional, VeroE6; settings: Vero C1008
cells = assay type: functional
[5] = non-specific 3'UTR reporter inhibition in Clone20-Shn3RL – cell-based, Renilla luciferase, cherry-picked, counter-screen for Shn3 inhibitor project, dose response (AID 624133); assay type: functional
[6] = Trypanosoma cruzi growth suppression in host cells – NIH3T3 host cells, beta-gal luminescence, confirmation (AID 2044); assay type: functional, cell-based;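 also: intracellular parasites grown in NIH/3T3 mouse fibroblasts as host cells; luminescent beta-galactosidase reporter signal from transgenic T. cruzi replicating inside host cells; inhibitors lower the luminescence signal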
[7] = THP-1 cell cytotoxicity, dose response, cytotoxicity control for non-replicating M. tuberculosis project (AID 489025); assay type: functional
Mu-type opioid receptor = Mu-type opioid receptor (Homo sapiens, UniProt P35372); experiment: Counterscreen for agonists of heterodimerization of the mu 1 (OPRM1) and delta 1 (OPRD1) opioid receptors: Luminescence-based cell-based high throughput dose response assay to identify agonists of OPRM1 homodimerization.; assay type: functional;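 also: U2OS cells expressing OPRM1 and beta-arrestin as split beta-galactosidase partners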
Mu-type opioid receptor, sequence (P35372 whole entry): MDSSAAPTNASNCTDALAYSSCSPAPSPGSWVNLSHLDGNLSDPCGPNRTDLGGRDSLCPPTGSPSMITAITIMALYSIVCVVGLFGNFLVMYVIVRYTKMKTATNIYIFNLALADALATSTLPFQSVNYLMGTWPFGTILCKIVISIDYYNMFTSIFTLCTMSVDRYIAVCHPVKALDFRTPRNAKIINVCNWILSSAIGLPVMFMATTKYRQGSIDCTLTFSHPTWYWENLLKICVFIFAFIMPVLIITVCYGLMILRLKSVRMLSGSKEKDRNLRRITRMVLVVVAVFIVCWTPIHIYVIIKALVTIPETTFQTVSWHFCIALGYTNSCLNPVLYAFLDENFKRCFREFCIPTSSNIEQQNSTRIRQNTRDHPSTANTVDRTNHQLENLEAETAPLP

[8] = biological target: 5-hydroxytryptamine receptor 5A (Homo sapiens, UniProt P47898); experiment: Counterscreen for agonists of OPRM1-OPRD1 heterodimerization: luminescence-based cell-based high throughput dose response assay to identify agonists of 5-hydroxytryptamine (serotonin) 5A receptor (HTR5A). [Related pubchem assays (depositor defined):AID504326, AID504355, AID504692, AID504904, AID504905]; assay type: functional
5-hydroxytryptamine receptor 5A, sequence (P47898 whole entry): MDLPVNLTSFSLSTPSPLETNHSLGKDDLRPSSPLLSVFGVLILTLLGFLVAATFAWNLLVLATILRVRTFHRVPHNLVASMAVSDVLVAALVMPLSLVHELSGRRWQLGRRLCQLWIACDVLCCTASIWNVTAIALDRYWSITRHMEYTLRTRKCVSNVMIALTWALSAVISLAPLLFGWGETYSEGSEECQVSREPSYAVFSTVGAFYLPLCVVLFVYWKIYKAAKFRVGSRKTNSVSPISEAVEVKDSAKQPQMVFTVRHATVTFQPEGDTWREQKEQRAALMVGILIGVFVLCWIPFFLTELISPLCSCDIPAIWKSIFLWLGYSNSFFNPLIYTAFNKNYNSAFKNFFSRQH

[9] = loss of viability in HepG2 cells – cell-based, CellTiter-Glo, cherry-picked, cytotoxicity control for Shn3 inhibitor project, dose response (AID 624134); assay type: functional
[10] = HepG2 cell cytotoxicity, dose response, cytotoxicity control for non-replicating M. tuberculosis project (AID 489018); assay type: functional; settings: Mycobacterium tuberculosis
[11] = NIH3T3 cell viability loss – ATP luminescence, mouse fibroblasts, counter-screen, dose response (AID 2010); assay type: functional, cell-based;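 also: cells exposed to compound for about 90 hours before reading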
[12] = biological target: T1, Short transient receptor potential channel 4; experiment: block of DAMGO-driven TRPC4 calcium entry – cell-based, HEK293 TRPC4/mu-opioid, Fluo-4 calcium, dose response (AID 434942); assay type: functional;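 also: potency of inhibitors blocking the TRPC4 calcium response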
HEK293 [13] = experiment: cells; settings: Homo sapiens
[14] = biological target: T2, Calpain-2 catalytic subunit (Sus scrofa, UniProt P43367); experiment: m-calpain protease blockers, concentration series – biochemical, fluorogenic peptide substrate, dose response (AID 1420); assay type: functional
T2 sequence (P43367 whole entry): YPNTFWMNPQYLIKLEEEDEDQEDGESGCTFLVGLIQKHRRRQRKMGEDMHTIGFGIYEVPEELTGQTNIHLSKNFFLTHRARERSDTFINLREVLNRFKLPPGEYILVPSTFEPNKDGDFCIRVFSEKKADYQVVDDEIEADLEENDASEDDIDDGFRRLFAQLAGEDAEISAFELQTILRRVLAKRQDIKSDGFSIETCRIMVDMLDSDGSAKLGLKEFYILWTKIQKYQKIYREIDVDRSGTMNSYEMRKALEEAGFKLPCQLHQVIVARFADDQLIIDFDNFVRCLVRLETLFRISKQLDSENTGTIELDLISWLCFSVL

HEK293 [15] = experiment: cells; settings: Homo sapiens; remark: listed apart in the source
HeLa = experiment: ATP-based viability loss in HeLa cells – cell-based, CellTiter-Glo luminescence, cherry-pick samples, cytotoxicity control for MITF activator project, dose response (AID 540259); assay type: functional; settings: Homo sapiens
[16] = biological target: Glucose-6-phosphate 1-dehydrogenase (Homo sapiens, UniProt P11413); experiment: inhibition of Homo sapiens G6PD, dose series – biochemical, fluorescence, selectivity assay for P. falciparum G6PD inhibitor project, dose response (AID 504792); assay type: functional
Glucose-6-phosphate 1-dehydrogenase, sequence (P11413 whole entry): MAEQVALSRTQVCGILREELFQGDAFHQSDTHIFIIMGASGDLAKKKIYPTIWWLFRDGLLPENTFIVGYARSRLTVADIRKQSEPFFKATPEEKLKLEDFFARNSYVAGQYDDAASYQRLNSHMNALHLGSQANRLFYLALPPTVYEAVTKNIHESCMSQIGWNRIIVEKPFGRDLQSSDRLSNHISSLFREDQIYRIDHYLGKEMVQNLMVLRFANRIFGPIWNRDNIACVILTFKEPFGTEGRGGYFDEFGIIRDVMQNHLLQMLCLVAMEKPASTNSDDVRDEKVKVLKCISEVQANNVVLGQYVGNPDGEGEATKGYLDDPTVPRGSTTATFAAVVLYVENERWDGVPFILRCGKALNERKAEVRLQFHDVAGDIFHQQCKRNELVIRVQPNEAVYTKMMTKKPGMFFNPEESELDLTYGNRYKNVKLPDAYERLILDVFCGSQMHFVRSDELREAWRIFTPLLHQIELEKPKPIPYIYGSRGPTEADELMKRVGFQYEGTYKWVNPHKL

In the case of `Cc1ccccc1OCC(O)Cn1c(=N)n(Cc2ccccc2)c2ccccc21` (stereo not given), the EC50 [1] is reported as > 92.5 µM (inactive), the EC50 [2] is reported as 3.35 µM (active) and the AC50 [3] is reported as 2.25 µM (active). For the same compound, the CC50 [4] was 19.9 µM (active), the IC50 (cells) was 18.5 µM (active) and the AC50 [5] was 1.49 µM (active). For the same compound, the EC50 [6] was 2.75 µM (active), the CC50 [7] was 7.48 µM (active) and the EC50 (Mu-type opioid receptor) was > 92.5 µM (inactive). For the same compound, the EC50 [8] was > 92.5 µM (inactive), the AC50 [9] was 11.2 µM (active) and the CC50 [10] was 8.06 µM (active). For the same compound, the EC50 [11] was > 30 µM (not active) and the EC50 [12] was 1.06 µM (active).

In the case of `Cn1c(=O)n(C)c2cc(S(=O)(=O)N3CCCc4ccccc43)ccc21`, the EC50 (HEK293 [13]) is reported as > 59.6 µM (inactive), the IC50 [14] is reported as 7.05 µM (not active) and the EC50 (HEK293 [15]) is reported as > 59.6 µM (inactive).

For `COc1ccc(-c2nnc(-c3ccc4ccccc4c3)o2)cc1`, the AC50 (HeLa) was > 350 µM (inactive).

In the case of `Nc1ccc(CSc2ccc(Cl)cc2)c(Cl)c1`, the AC50 (HeLa) is reported as 75.6 µM (active).

For `CCOc1ccc(N(CC(=O)N/N=C/c2cc([N+](=O)[O-])ccc2Cl)S(C)(=O)=O)cc1`, the IC50 [16] was > 80 µM (inactive).
